The test system of the experiment is CREB. As to the kind of experiment: CREB Ser133 phosphorylation in HMVE cells, Western blot. The following applies: HMVECs. The experiment is classed as cell-based, human. The method, then: Western blot analysis. Endothelial cells were cultured on 35 mm dishes to near confluence, starved for 24 h in serum free medium and stimulated as indicated. Wortmannin ([…]), LY294002 ([…]), PD98059 (10-25 μM) or GF109203X (2.5-5 μM) were added 1-3 h before stimulation, where indicated. DMSO, into which the inhibitors were dissolved, was used as a control. After the stimulation, the cells were lysed in lysis buffer (50 mM HEPES, pH 7.5, 150 mM NaCl, 10 mM EDTA, 100 mM NaF, 1% TritonX-100 supplemented with 2 mM Na3VO4, 0.5 mM PMSF, 100 U/ml approtinin and 10 μg/ml leupeptin). Clarified lysates were separated by SDS-PAGE, transferred to nitrocellulose and immunoblotted using the phosphospecific antibodies for Akt-Ser473, Akt-Thr308, p42/44 MAPK-Thr202/Tyr204 or CREB-Ser133. The bound antibodies were detected using horseradish peroxidase conjugated secondary antibodies and enhanced chemiluminescence detection system. The blots were stripped and reprobed with antibodies against Akt, MAPK or CREB for quantification by reading the optical densities of the signals with Multi-Analyst 2.0.1 program (Bio-Rad).
The p42/p44 MAPK activation was detected by Western blotting using phospho-Thr202/Tyr204-MAPK specific antibodies and CREB phosphorylation using phospho-Ser133 specific antibodies. The growth factor concentrations used were: VEGF 10 ng/ml, VEGF-C 100 ng/ml and VEGF-C156S 500 ng/ml. […] Effects of inhibition of protein kinase C by GF109203X, MEK1 by PD98059 and PI-3 kinase by LY294002 on p42/p44 MAPK Thr202/Tyr204 phosphorylation, CREB Ser133 phosphorylation and Akt Ser473 phosphorylation in HMVE cells. The growth factor concentrations used were: VEGF 1 ng/ml, VEGF-C 10 ng/ml and VEGF-C156S 500 ng/ml

With VEGF, the “CREB phosphorylation on growth factor stimulation” value was “detected”.

The record behind these values is patent publication US20080317723A1, “LYMPHATIC ENDOTHELIAL CELLS MATERIALS AND METHODS” (VEGENICS LIMITED, priority 2001, published 2008).
